Results as given in the supplement of paper PMC10307832.

Assays:
Assay in all cases: relative viability (nuclei count vs DMSO), 5 days (fraction); higher = more cells survive
[1] = system: BEN
Procedure, shortened: (§1)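 For relative viability, nuclei counts in treated wells were divided by those in vehicle wells. Lung cancer cell lines had been pin-tool dosed in 1536-well plates the day after seeding and cultured for 5 days, then fixed and stained in one step (final 0.05% Triton X-100, 1% formaldehyde, 1 ug/ml Hoechst) and imaged at 4×. Doses were one drug alone or a fixed anchor-drug dose plus five library-drug doses (not always all listed) in √10 steps, and values are duplicate-plate medians.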

[2] = system: EKVX
Procedure, shortened: as §1

[3] = system: HARA
Procedure, shortened: as §1

[4] = system: HCC-366
Procedure, shortened: as §1

[5] = system: HCC-44
Procedure, shortened: as §1

[6] = system: HCC-827
Procedure, shortened: as §1

[7] = system: LC-2-ad
Procedure, shortened: as §1

[8] = system: LOU-NH91
Procedure, shortened: as §1

[9] = system: NCI-H1355
Procedure, shortened: as §1

[10] = system: NCI-H1395
Procedure, shortened: as §1

[11] = system: NCI-H1437
Procedure, shortened: as §1

[12] = system: NCI-H1734
Procedure, shortened: as §1

[13] = system: NCI-H1792
Procedure, shortened: as §1

[14] = system: NCI-H2009
Procedure, shortened: as §1

[15] = system: NCI-H2087
Procedure, shortened: as §1

[16] = system: NCI-H2228
Procedure, shortened: as §1

[17] = system: NCI-H2405
Procedure, shortened: as §1

[18] = system: NCI-H596
Procedure, shortened: as §1

[19] = system: NCI-H647
Procedure, shortened: as §1

[20] = system: NCI-H661
Procedure, shortened: as §1

[21] = system: SK-LU-1
Procedure, shortened: as §1

[22] = system: SK-MES-1
Procedure, shortened: as §1

C[C@@H]1CN(CC(=O)Nc2ccc3c(c2)Cc2cccc(-c4cc(=O)cc(N5CCOCC5)o4)c2S3)C[C@H](C)O1 + C[C@]1(O)C[C@@H](c2nc(-c3ccc4ccc(-c5ccccc5)nc4c3)c3c(N)nccn32)C1 [Linsitinib] (partner 1 µM)
relative viability ([1]; first compound 0.04 µM): 0.782 | relative viability ([1]; first compound 0.1265 µM): 0.832 | relative viability ([1]; first compound 0.4 µM): 1.1 | relative viability ([1]; first compound 4 µM): 0.86 | relative viability ([2]; first compound 0.04 µM): 0.954 | relative viability ([2]; first compound 0.1265 µM): 0.982 | relative viability ([2]; first compound 0.4 µM): 0.963 | relative viability ([2]; first compound 4 µM): 0.972 | relative viability ([3]; first compound 0.04 µM): 0.997 | relative viability ([3]; first compound 0.1265 µM): 0.876 | relative viability ([3]; first compound 0.4 µM): 0.893 | relative viability ([3]; first compound 4 µM): 0.906 | relative viability ([4]; first compound 0.04 µM): 0.752 | relative viability ([4]; first compound 0.1265 µM): 0.622 | relative viability ([4]; first compound 0.4 µM): 0.428 | relative viability ([4]; first compound 4 µM): 0.495 | relative viability ([5]; first compound 0.04 µM): 0.636 | relative viability ([5]; first compound 0.1265 µM): 0.683 | relative viability ([5]; first compound 0.4 µM): 0.537 | relative viability ([5]; first compound 4 µM): 0.632 | relative viability ([6]; first compound 0.04 µM): 1 | relative viability ([6]; first compound 0.1265 µM): 0.895 | relative viability ([6]; first compound 0.4 µM): 0.978 | relative viability ([6]; first compound 4 µM): 0.954 | relative viability ([7]; first compound 0.04 µM): 0.798 | relative viability ([7]; first compound 0.1265 µM): 0.895 | relative viability ([7]; first compound 0.4 µM): 0.839 | relative viability ([7]; first compound 4 µM): 0.719 | relative viability ([8]; first compound 0.04 µM): 1.02 | relative viability ([8]; first compound 0.1265 µM): 0.956 | relative viability ([8]; first compound 0.4 µM): 0.906 | relative viability ([8]; first compound 4 µM): 0.93 | relative viability ([9]; first compound 0.04 µM): 0.857 | relative viability ([9]; first compound 0.1265 µM): 0.792 | relative viability ([9]; first compound 0.4 µM): 0.866 | relative viability ([9]; first compound 4 µM): 0.815 | relative viability ([10]; first compound 0.04 µM): 1.14 | relative viability ([10]; first compound 0.1265 µM): 1.16 | relative viability ([10]; first compound 0.4 µM): 0.992 | relative viability ([10]; first compound 4 µM): 0.953 | relative viability ([11]; first compound 0.04 µM): 1.01 | relative viability ([11]; first compound 0.1265 µM): 0.989 | relative viability ([11]; first compound 0.4 µM): 0.939 | relative viability ([11]; first compound 4 µM): 0.575 | relative viability ([12]; first compound 0.04 µM): 1.01 | relative viability ([12]; first compound 0.1265 µM): 0.85 | relative viability ([12]; first compound 0.4 µM): 0.801 | relative viability ([12]; first compound 4 µM): 0.92 | relative viability ([13]; first compound 0.04 µM): 0.503 | relative viability ([13]; first compound 0.1265 µM): 0.519 | relative viability ([13]; first compound 0.4 µM): 0.564 | relative viability ([13]; first compound 4 µM): 0.425 | relative viability ([14]; first compound 0.04 µM): 1.24 | relative viability ([14]; first compound 0.1265 µM): 1.13 | relative viability ([14]; first compound 0.4 µM): 1.1 | relative viability ([14]; first compound 4 µM): 0.961 | relative viability ([15]; first compound 0.04 µM): 0.939 | relative viability ([15]; first compound 0.1265 µM): 1 | relative viability ([15]; first compound 0.4 µM): 0.91 | relative viability ([15]; first compound 4 µM): 0.772 | relative viability ([16]; first compound 0.04 µM): 0.685 | relative viability ([16]; first compound 0.1265 µM): 0.731 | relative viability ([16]; first compound 0.4 µM): 0.34 | relative viability ([16]; first compound 4 µM): 0.334 | relative viability ([17]; first compound 0.04 µM): 0.896 | relative viability ([17]; first compound 0.1265 µM): 1.04 | relative viability ([17]; first compound 0.4 µM): 0.832 | relative viability ([17]; first compound 4 µM): 0.881 | relative viability ([18]; first compound 0.04 µM): 1.12 | relative viability ([18]; first compound 0.1265 µM): 1.15 | relative viability ([18]; first compound 0.4 µM): 0.922 | relative viability ([18]; first compound 4 µM): 1 | relative viability ([19]; first compound 0.04 µM): 1.28 | relative viability ([19]; first compound 0.1265 µM): 1.12 | relative viability ([19]; first compound 0.4 µM): 0.926 | relative viability ([19]; first compound 4 µM): 0.76 | relative viability ([20]; first compound 0.1265 µM): 0.556 | relative viability ([20]; first compound 0.4 µM): 0.599 | relative viability ([20]; first compound 4 µM): 0.506 | relative viability ([21]; first compound 0.04 µM): 1.18 | relative viability ([21]; first compound 0.1265 µM): 1.19 | relative viability ([21]; first compound 0.4 µM): 1.27 | relative viability ([21]; first compound 4 µM): 0.835 | relative viability ([22]; first compound 0.04 µM): 1.13 | relative viability ([22]; first compound 0.1265 µM): 1.06 | relative viability ([22]; first compound 0.4 µM): 1.02 | relative viability ([22]; first compound 4 µM): 0.836
